According to article PMC11009412, “Pathogenic mutations of human phosphorylation sites affect protein–protein interactions” (Nature Communications, 2024):
“Also recorded” adds a separate entry of the source.

Legend:
[1] = test system: BirA*-FLAG-GATAD1 variants in Flp-In-293 cells; test: BioID proximity labelling of full-length GATAD1 variants (SILAC); format: cell-based, human; conditions: GATAD1 WT vs S102P, significant proteins only; for Log2_Ratio.H.L.normalized.WT_S102P_forward: forward experiment (label swap performed, sign inverted against the H/L ratio); for Log2_Ratio.H.L.normalized.WT_S102P_forward / Log2_Ratio.H.L.normalized.WT_S102P_reverse: log2 of normalized H/L ratio; for Ratio.H.L.normalized.WT_S102P_forward: forward experiment; for Log2_Ratio.H.L.normalized.WT_S102P_reverse / Ratio.H.L.normalized.WT_S102P_reverse: reverse experiment
Description: The GATAD1 gene variants were ordered in a pTwist ENTR Kozak vector from Twist Bioscience. The genes were then transferred to a pDEST_pcDNA5_BirA_FLAG_Nterm vector[97] using the Gateway Clonase II system (Thermo Fisher Scientific). The resulting vectors, pEXPR_GATAD1-WT_N-term_BirA_FLAG, pEXPR_GATAD1-S102P_N-term_BirA_FLAG, pEXPR_GATAD1-S102D_N-term_BirA_FLAG, and pEXPR_GATAD1-S102A_N-term_BirA_FLAG, were used to generate tetracycline-inducible stable Flp-In^TM-293 T-REx cells. A 6-well plate was co-transfected with 0.5 µg of the pEXPR plasmid and 1 µg of the pOG44 Flp-recombinase expression vector (Thermo Fisher Scientific) using 4.5 µg of PEI (Polysciences) as a transfection reagent. The following day, the cells were trypsinized and transferred to a 10 cm dish containing DMEM supplemented with 10% FCS and 200 µg/ml hygromycin B (Invivogen) for selection. The cells were cultured for approximately 18 days with media exchange every 3 days until visible colonies were observed. After around 18 days, the colonies were trypsinized and transferred to another 10 cm dish for further characterization and experiments.
Stable Flp-In^TM-293 cell lines expressing GATAD1 variants were cultured using SILAC light (Lys0, Arg0) and SILAC heavy (Lys8, Arg10) media, as explained in the cell culture section. After full labeling, cells were split into 15 cm dishes and were treated with 1 μg/mL tetracycline for 24 h to induce the expression of GATAD1. After the induction period, cells were incubated with 50 μM biotin overnight for proximity biotinylation. As a control, wild-type GATAD1 cells, without biotin or tetracycline addition, were used. Samples were multiplexed, as shown in Supplementary Fig. 41A with both forward and reverse label swap (n = 2). Cells were then lysed in lysis buffer (50 mM Tris-HCl pH 7.5, 150 mM NaCl, 1% Triton X-100, 1 mM EDTA, 1 mM EGTA, 0.1% SDS) with freshly added protease inhibitors and 1% sodium deoxycholate. To digest the excess DNA, 1 μl of Benzonase was added, and the samples were incubated for 20 min at 37 °C. Biotinylated proteins were enriched for 3 h at 4 °C using streptavidin-sepharose beads (GE Cat# 17-5113-01). Beads were pre-washed twice with 0.01% BSA and twice with lysis buffer. After enrichment, the beads were washed one time with lysis buffer, two times with washing buffer (50 mM HEPES-KOH pH 8.0, 100 mM KCl, 10% glycerol, 2 mM EDTA, 0.1% NP-40), and six times with 50 mM ammonium bicarbonate. Beads were resuspended in ammonium bicarbonate, and an on-bead protein digest with 1 μg of trypsin followed overnight. The next day, the digested proteins were transferred to a fresh tube and were incubated with 10 mM DTT for 30 min at 37 °C and with 55 mM iodoacetamide for 20 min at 37 °C in the dark. Samples were desalted with StageTips.
Peptides were separated using reversed-phase liquid chromatography (EASY nLC II 1200, Thermo Fisher Scientific) with self-made C18 microcolumns (20 cm long) packed with ReproSil-Pur C18-AQ 1.9 μm resin (Dr. Maisch, cat# r119.aq.0001). The chromatography system was coupled online to the electrospray ion source (Proxeon) of an Orbitrap Exploris 480 mass spectrometer (Thermo Fisher Scientific). The mobile phase consisted of buffer A (0.1% formic acid and 5% acetonitrile) and buffer B (0.1% formic acid and 80% acetonitrile). Peptides were eluted using a gradient with increasing concentrations of buffer B over 110 minutes, at a flow rate of 250 nl/min. Mass spectrometry data was acquired in data-dependent mode with settings for one full scan (resolution: 60,000; m/z range: 350–1600; normalized AGC target: 300%; maximum injection time: 10 ms), followed by top 20 MS/MS scans using higher-energy collisional dissociation (resolution: 15,000; m/z range: 200–2000; normalized AGC target: 100%; maximum injection time: 120 ms; isolation width: 1.3 m/z; normalized collision energy: 28%).
Raw files were analyzed with MaxQuant, version 2.0.3.0. […]

14-3-3 epsilon (YWHAE) = target: T1, 14-3-3 epsilon (YWHAE) (Homo sapiens, UniProt P62258); test: Isothermal titration calorimetry (ITC) of GATAD1 peptides with 14-3-3ε; format: binding; conditions: 18 °C, 400 µM peptide in syringe, 25 µM 14-3-3ε in chamber, 20 mM HEPES pH 7.0, 150 mM NaCl, 2 mM DTT
T1 construct: residues 1 and 236-255 are disordered and therefore not visible in the electron density; GST (N, cleaved yes); made in house; host or cells: Escherichia coli C41 (DE3)
T1 sequence (P62258 1-255): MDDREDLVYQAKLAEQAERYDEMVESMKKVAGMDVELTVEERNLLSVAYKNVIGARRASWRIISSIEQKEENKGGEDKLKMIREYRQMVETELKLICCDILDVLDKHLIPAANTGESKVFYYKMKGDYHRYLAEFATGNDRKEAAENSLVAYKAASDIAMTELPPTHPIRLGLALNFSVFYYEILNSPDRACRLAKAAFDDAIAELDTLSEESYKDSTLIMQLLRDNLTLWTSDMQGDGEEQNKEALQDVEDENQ
Method: The 14-3-3ε (YWHAE) cDNA was purchased from Twist Bioscience in the pTwist Chlor High Copy vector and cloned into the pGEX6P1 plasmid (GE Healthcare) for recombinant expression as a GST-fusion protein followed by a Prescission protease cleavage site. The plasmid was freshly transformed into Escherichia coli C41 (DE3) cells. Cultures were grown in terrific broth supplemented with ampicillin (100 μg/ml) at 37 °C and 80 rpm until an optical density at 600 nm of 0.7 was reached. […] Cells were harvested by centrifugation at 4000 g and frozen at −20 °C.
Following resuspension in lysis buffer (50 mM HEPES/NaOH pH 7.5, 500 mM NaCl and 3 mM Dithiothreitol (DTT)) supplemented with 1 mg deoxyribonuclease I (DNaseI, Roche) and protease inhibitor 4-(2-Aminoethyl) benzenesulfonyl fluoride hydrochloride S7(AEBSF), cells were disrupted using a microfluidizer (Microfluidics). The cell extract was centrifuged at 55,000 g for 45 min at 4 °C to remove insoluble parts. The cleared supernatant was applied onto a prepacked Glutathione Sepharose 4B column (Cytiva) equilibrated in the lysis buffer. The column was extensively washed with lysis buffer. To cleave off the GST tag, 1 mg PreScission protease was diluted in 5 ml OCC buffer (50 mM HEPES/NaOH pH 7.5, 150 mM NaCl, and 3 mM DTT), applied to the column material, and incubated overnight at 4 °C. Cleaved 14-3-3ε protein was eluted from the column using OCC buffer, concentrated and loaded onto an 16/60 S200 column (Cytiva) equilibrated in SEC buffer (20 mM HEPES/NaOH pH 7.5, 150 mM NaCl and 2 mM DTT). Pure and homogenous 14-3-3ε was concentrated to 13 mg/ml, flash-frozen in liquid nitrogen, and stored at −80 °C until further use.
GATAD1 peptides used in these experiments were obtained from JPT peptide technologies with an N-terminus in amine and a C-terminus in amide form with 95% purity. ITC experiments were performed using a PEAQ-ITC microcalorimeter (Malvern). All titrations were performed at 18 °C with 400 µM peptide in the syringe and 25 µM 14-3-3ε in the reaction chamber. The protein and the titration components were dissolved in a buffer containing 20 mM HEPES pH 7.0, 150 mM NaCl, and 2 mM DTT. Malvern software was used for data visualization and fitting. The raw ITC results can be found in Supplementary Fig. 42.

## BCLAF1
[1]
  Log2_Ratio.H.L.normalized.WT_S102P_forward: 1.402
  Ratio.H.L.normalized.WT_S102P_forward: 0.3784
  Log2_Ratio.H.L.normalized.WT_S102P_reverse: 1.045
  Ratio.H.L.normalized.WT_S102P_reverse: 2.064

## BOD1L1
[1]
  Log2_Ratio.H.L.normalized.WT_S102P_forward: 1.279
  Ratio.H.L.normalized.WT_S102P_forward: 0.4121
  Log2_Ratio.H.L.normalized.WT_S102P_reverse: 1.335
  Ratio.H.L.normalized.WT_S102P_reverse: 2.5226

## HDGFRP2
[1]
  Log2_Ratio.H.L.normalized.WT_S102P_forward: 1.523
  Ratio.H.L.normalized.WT_S102P_forward: 0.348
  Log2_Ratio.H.L.normalized.WT_S102P_reverse: 1.484
  Ratio.H.L.normalized.WT_S102P_reverse: 2.7966

## LRNTKYKEAPAAEKK [S102E, phosphomimetic S102E mutant GATAD1 peptide]
14-3-3 epsilon (YWHAE)
  Interaction with 14-3-3ε by ITC (in words): do not interact

## LRNTKYKPAPAAEKK [GATAD1_Ser102Pro, GATAD1 15-mer with the disease-linked S102P mutation]
14-3-3 epsilon (YWHAE)
  Interaction with 14-3-3ε by ITC (in words): Neither the non-phosphorylated wild-type peptide nor the peptide with the disease-linked S102P mutation showed detectable binding; also recorded: do not interact

## LRNTKYKSAPAAEKK [GATAD1, wild-type non-phosphorylated GATAD1 15-mer; ITC form with C-terminus in amide form]
14-3-3 epsilon (YWHAE)
  Interaction with 14-3-3ε by ITC (in words): do not interact
14-3-3 epsilon (YWHAE); listed as non-phosphorylated wild-type peptide
  Interaction with 14-3-3ε by ITC (in words): Neither the non-phosphorylated wild-type peptide nor the peptide with the disease-linked S102P mutation showed detectable binding

## MED1
[1]
  Log2_Ratio.H.L.normalized.WT_S102P_forward: 1.28
  Ratio.H.L.normalized.WT_S102P_forward: 0.4118
  Log2_Ratio.H.L.normalized.WT_S102P_reverse: 1.018
  Ratio.H.L.normalized.WT_S102P_reverse: 2.0257

## MGA
[1]
  Log2_Ratio.H.L.normalized.WT_S102P_forward: 1.435
  Ratio.H.L.normalized.WT_S102P_forward: 0.3699
  Log2_Ratio.H.L.normalized.WT_S102P_reverse: 1.064
  Ratio.H.L.normalized.WT_S102P_reverse: 2.0912

## NCOR1
[1]
  Log2_Ratio.H.L.normalized.WT_S102P_forward: 1.327
  Ratio.H.L.normalized.WT_S102P_forward: 0.3987
  Log2_Ratio.H.L.normalized.WT_S102P_reverse: 1.25
  Ratio.H.L.normalized.WT_S102P_reverse: 2.3792

## NPM1
[1]
  Log2_Ratio.H.L.normalized.WT_S102P_forward: 1.325
  Ratio.H.L.normalized.WT_S102P_forward: 0.3991
  Log2_Ratio.H.L.normalized.WT_S102P_reverse: 1.034
  Ratio.H.L.normalized.WT_S102P_reverse: 2.0483

## PCF11
[1]
  Log2_Ratio.H.L.normalized.WT_S102P_forward: 1.509
  Ratio.H.L.normalized.WT_S102P_forward: 0.3515
  Log2_Ratio.H.L.normalized.WT_S102P_reverse: 1.2027
  Ratio.H.L.normalized.WT_S102P_reverse: 2.3017

## PSME3
[1]
  Log2_Ratio.H.L.normalized.WT_S102P_forward: 1.443
  Ratio.H.L.normalized.WT_S102P_forward: 0.3677
  Log2_Ratio.H.L.normalized.WT_S102P_reverse: 1.216
  Ratio.H.L.normalized.WT_S102P_reverse: 2.3229

## PSPGRQNSKAPKLTL [NCOA6, wild-type non-phosphorylated 15-mer]
[1]
  Log2_Ratio.H.L.normalized.WT_S102P_forward: 1.334
  Ratio.H.L.normalized.WT_S102P_forward: 0.3966
  Log2_Ratio.H.L.normalized.WT_S102P_reverse: 1.3003
  Ratio.H.L.normalized.WT_S102P_reverse: 2.4628

## RBBP6
[1]
  Log2_Ratio.H.L.normalized.WT_S102P_forward: 1.156
  Ratio.H.L.normalized.WT_S102P_forward: 0.4486
  Log2_Ratio.H.L.normalized.WT_S102P_reverse: 1.0059
  Ratio.H.L.normalized.WT_S102P_reverse: 2.0082

## TPR
[1]
  Log2_Ratio.H.L.normalized.WT_S102P_forward: 1.211
  Ratio.H.L.normalized.WT_S102P_forward: 0.4319
  Log2_Ratio.H.L.normalized.WT_S102P_reverse: 1.117
  Ratio.H.L.normalized.WT_S102P_reverse: 2.169

## ZC3H4
[1]
  Log2_Ratio.H.L.normalized.WT_S102P_forward: 1.304
  Ratio.H.L.normalized.WT_S102P_forward: 0.405
  Log2_Ratio.H.L.normalized.WT_S102P_reverse: 1.071
  Ratio.H.L.normalized.WT_S102P_reverse: 2.1009

## ZNF318
[1]
  Log2_Ratio.H.L.normalized.WT_S102P_forward: 1.385
  Ratio.H.L.normalized.WT_S102P_forward: 0.3829
  Log2_Ratio.H.L.normalized.WT_S102P_reverse: 1.241
  Ratio.H.L.normalized.WT_S102P_reverse: 2.3636
